Measurements from BigSolDB 2.1.

O=P(Oc1ccccc1)(Oc1ccccc1)N1CCN(P(=O)(Oc2ccccc2)Oc2ccccc2)CC1
solubility (mole fraction)
Details	in THF	in acetone	in benzene	in chloroform	in dichloromethane	in ethanol	in ethyl acetate	in methanol	in toluene
288.15 K	–	–	–	–	0.00585	–	–	–	–
293.15 K	0.00109	0.000424	0.00268	0.0132	0.00725	0.000495	0.000826	3.28e-05	0.000506
298.15 K	0.00143	0.000489	0.00319	0.0146	0.00878	0.000613	0.00103	5.77e-05	0.000616
303.15 K	0.00183	0.000559	0.00385	0.0162	0.0106	0.000746	0.00122	9.84e-05	0.000782
308.15 K	0.00236	0.000631	0.00458	0.0183	0.013	0.000946	0.00158	0.000156	0.000986
313.15 K	0.00301	0.000717	0.00549	0.0202	–	0.00113	0.00194	0.000251	0.00124
318.15 K	0.00375	0.000795	0.00632	0.0223	–	0.00134	0.00242	0.000415	0.00148
323.15 K	0.00493	0.000901	0.00724	0.0245	–	0.00158	0.00301	0.000656	0.00178
328.15 K	0.00605	–	0.00834	–	–	0.00186	0.0036	–	0.00213
333.15 K	0.00766	–	0.00972	–	–	0.00221	0.00437	–	0.00251
338.15 K	–	–	0.0112	–	–	0.00269	0.00521	–	0.00313
343.15 K	–	–	0.0129	–	–	0.0032	0.00614	–	0.00371
